Assay results as given in patent US5409933A, “Quinoline derivatives and processes for preparing the same” (priority 1993, dated 1995).
Where a name gives a salt, the structure may show the parent alone. Read-outs that look alike come from different tables or passages of the source.

What was measured:
Assay in all cases: In Vitro Anti-Bacterial Activity Test (MIC, agar dilution)
Assay type in all cases: cell-based
[1] = test system: Pseudomonas aeruginosa 1771; settings: Pseudomonas aeruginosa 1771; Muller-Hinton agar, 37° C., 18 hours; read-out: MIC
Description: (§1) The above in vitro antibacterial activity test was carried out in accordance with the agar culture medium dilution method (Hoechst 345) by using Muller-Hinton agar medium to determine the minimum inhibitory concentration (MIC).
(§2) The strains having 10^7 C.F.U./ml were inoculated on the culture medium, and the growth of the strains was observed after incubating them at 37° C. for 18 hours, in which ciprofloxacin was used as a control antibacterial agent. In this test, twenty typical strains were used.

[2] = test system: Streptococcus pyogenes 308A; settings: Muller-Hinton agar, 37° C., 18 hours, read-out: MIC
Description: as §1, §2

[3] = test system: Enterobacter cloacae 1321E; settings: Enterobacter cloacae 1321E; Muller-Hinton agar, 37° C., 18 hours; read-out: MIC
Description: as §1, §2

Escherichia coli DC2 = settings: Escherichia coli, DC2, 18 h
Description: as §1, §2

[4] = test system: Streptococcus pyogenes 77A
Description: as §1, §2

[5] = test system: Streptococcus faecium MD8b; settings: Enterococcus faecium, Muller-Hinton agar, 37° C., 18 hours, read-out: MIC
Description: as §1, §2

Escherichia coli 078 = settings: Escherichia coli 078; Muller-Hinton agar, 37° C., 18 hours; read-out: MIC
Description: as §1, §2

[6] = test system: Pseudomonas aeruginosa 1771M; settings: Pseudomonas aeruginosa, 1771M, 18 h, Muller-Hinton agar, 37° C.
Description: as §1, §2

Salmonella typhimurium = settings: Salmonella enterica
Description: as §1, §2

Escherichia coli DC0 = settings: Muller-Hinton agar, 37° C., 18 hours, read-out: MIC
Description: as §1, §2

Enterobacter cloacae P99 = settings: Enterobacter cloacae, P99, 18 h
Description: as §1, §2

[7] = test system: Staphylococcus aureus SG511
Description: as §1, §2

[8] = test system: Staphylococcus aureus 285; settings: Staphylococcus aureus, 285, 18 h
Description: as §1, §2

Escherichia coli 1507E = settings: Muller-Hinton agar, 37° C.
Description: as §1, §2

Escherichia coli TEM = settings: Escherichia coli, 18 h, Muller-Hinton agar, 37° C.
Description: as §1, §2

[9] = test system: Staphylococcus aureus 503
Description: as §1, §2

[10] = test system: Klebsiella aerogenes 1522E; settings: Klebsiella aerogenes, 1522E, 18 h
Description: as §1, §2

Klebsiella oxytoca 1082E = settings: Klebsiella oxytoca 1082E; Muller-Hinton agar, 37° C., 18 hours; read-out: MIC
Description: as §1, §2

[11] = test system: Pseudomonas aeruginosa 9027; settings: Muller-Hinton agar, 37° C., 18 hours, read-out: MIC
Description: as §1, §2

[12] = test system: Pseudomonas aeruginosa 1592E; settings: Muller-Hinton agar, 37° C., 18 hours, read-out: MIC
Description: as §1, §2

[13] = Streptococcus pyogenes 77A, Muller-Hinton agar, 37° C., 18 hours, read-out: MIC
[14] = Salmonella typhimurium, Muller-Hinton agar, 37° C., 18 hours, read-out: MIC
[15] = Staphylococcus aureus SG511, Muller-Hinton agar, 37° C., 18 hours, read-out: MIC
[16] = Staphylococcus aureus 285, Muller-Hinton agar, 37° C., 18 hours, read-out: MIC
[17] = Staphylococcus aureus 503, Muller-Hinton agar, 37° C., 18 hours, read-out: MIC
[18] = Klebsiella aerogenes 1522E, Muller-Hinton agar, 37° C., 18 hours, read-out: MIC

SMILES | MIC [1] [µg/mL] | MIC [2] [µg/mL] | MIC [3] [µg/mL] | MIC (Escherichia coli DC2) [µg/mL] | MIC [4, 13] [µg/mL] | MIC [5] [µg/mL] | MIC (Escherichia coli 078) [µg/mL] | MIC [6] [µg/mL] | MIC (Salmonella typhimurium; [14]) [µg/mL] | MIC (Escherichia coli DC0) [µg/mL] | MIC (Enterobacter cloacae P99) [µg/mL] | MIC [7, 15] [µg/mL] | MIC [8, 16] [µg/mL] | MIC (Escherichia coli TEM) [µg/mL] | MIC [9, 17] [µg/mL] | MIC [10, 18] [µg/mL] | MIC (Klebsiella oxytoca 1082E) [µg/mL] | MIC [11] [µg/mL] | MIC [12] [µg/mL] | MIC (Escherichia coli 1507E; Escherichia coli, 1507E, 18 h) [µg/mL] | other results
NC1CCN(c2c(F)cc3c(=O)c(C(=O)C[N+](=O)[O-])cn(C4CC4)c3c2Cl)C1 (stereo not drawn) [Example 11, 1-cyclopropyl-6-fluoro-8-chloro-7-(3-aminopyrrolidin-1-yl)-3-(2-nitroacetyl)-1,4-dihydro-4-oxoquinoline hydrochloride] | 0.098 | 0.195 | < 0.002 | 0.013 | 0.098 | 0.098 | < 0.002 | 0.025 | < 0.002 | 0.049 | < 0.002 | 0.013 | 0.025 | < 0.002 | 0.025 | 0.007 | < 0.002 | 0.195 | 0.195 |  | MIC (Escherichia coli 1507E; 18 hours, read-out: MIC): < 0.002 µg/mL
N[C@@H]1CCN(c2c(F)cc3c(=O)c(C(=O)C[N+](=O)[O-])cn(C4CC4)c3c2Cl)C1 [Example 12, 1-cyclopropyl-6-fluoro-8-chloro-7-(3-3R-aminopyrrolidin-1-yl)-3-(2-nitroacetyl)-1,4-dihydro-4-oxoquinoline hydrochloride] | 0.195 | 0.391 | < 0.002 | 0.049 | 0.195 | 0.098 | < 0.002 | 0.049 | < 0.002 | 0.098 | 0.004 |  |  | 0.004 |  |  | < 0.002 | 0.391 | 0.391 |  | MIC ([7]; Staphylococcus aureus, SG511, 18 h): 0.025 µg/mL; MIC [8]: 0.025 µg/mL; MIC (Escherichia coli 1507E; 18 hours, read-out: MIC): 0.004 µg/mL; MIC ([9]; Staphylococcus aureus, 503, 18 h): 0.025 µg/mL; MIC [10]: 0.025 µg/mL
C[C@@H]1CN(c2c(F)c(N)c3c(=O)c(C(=O)C[N+](=O)[O-])cn(C4CC4)c3c2F)C[C@H](C)N1 [Example 14, 1-cyclopropyl-5-amino-6,8-difluoro-7-(3,5-cis-dimethylpiperazin-1-yl)-3-(2-nitroacetyl)-1,4-dihydro-4-oxoquinoline hydrochloride] | 0.391 | 1.56 | < 0.002 | 0.049 | 0.195 | 0.391 | < 0.002 | 0.195 | < 0.002 | 0.098 | 0.007 | 0.098 | 0.098 | 0.007 | 0.049 | 0.025 | < 0.002 | 0.781 | 0.781 | 0.013 | 
CNCC1=CCN(c2c(F)cc3c(=O)c(C(=O)C[N+](=O)[O-])cn(C4CC4)c3c2F)C1 [Example 15, 1-cyclopropyl-6,8-difluoro-7-(3-methylaminomethyl-2,5-dihydropyrrol-1-yl)-3-(2-nitroacetyl)-1,4-dihydro-4-oxoquinoline hydrochloride] | 0.391 | 0.049 | < 0.002 | 0.013 | 0.025 | 0.025 | < 0.002 | 0.195 | < 0.002 | 0.098 | 0.004 | < 0.002 | 0.004 | 0.004 | < 0.002 | 0.013 | < 0.002 | 0.781 | 0.391 | 0.007 | 
CCOC(=O)C(C(=O)OCC)C(=O)c1cn(C2CC2)c2cc(N3CCNCC3)c(F)cc2c1=O [Example 18, 1-cyclopropyl-6-fluoro-7-(piperazin-1-yl)-3-(2,2-diethoxycarbonylacetyl)-1,4-dihydro-4-oxoquinoline hydrochloride] | 0.195 | 3.12 | < 0.002 | 0.098 | 0.781 | 0.781 | 0.004 | 0.049 |  | 0.195 | < 0.002 | 0.195 | 0.391 | 0.007 | 0.391 | 0.013 | 0.004 | 0.781 | 0.391 |  | MIC (Salmonella typhimurium; TYPHIMURIUM, 18 h): 0.007 µg/mL; MIC (Escherichia coli 1507E; 18 hours, read-out: MIC): 0.004 µg/mL
CCOC(=O)CC(=O)c1cn(C2CC2)c2cc(N3CCNCC3)c(F)cc2c1=O [Example 19, 1-cyclopropyl-6-fluoro-7-(piperazin-1-yl)-3-(2-ethoxycarbonylacetyl)-1,4-dihydro-4-oxoquinoline hydrochloride] | 0.781 | 3.12 | 0.013 | 0.391 | 1.56 | 0.781 | 0.004 | 1.56 | 0.391 | 0.391 | 0.013 | 0.391 | 1.56 | 0.195 | 0.781 | 0.049 | 0.013 | 0.781 | 1.56 | 0.013 | 
CCOC(=O)C(C(=O)OCC)C(=O)c1cn(C2CC2)c2c(F)c(N3CCC(N)C3)c(F)cc2c1=O (stereo not drawn) [Example 20, 1-cyclopropyl-6,8-difluoro-7-(3-aminopyrrolidin-1-yl)-3-(2,2-diethoxycarbonylacetyl)-1,4-dihydro-4-oxoquinoline hydrochloride] | 0.195 | 0.391 | < 0.002 | 0.013 | 0.098 | 0.098 | < 0.002 | 0.098 | < 0.002 | 0.098 | < 0.002 | 0.013 | 0.013 | < 0.002 | 0.025 | 0.025 | < 0.002 | 0.391 | 0.195 | 0.007 | 
CCOC(=O)CC(=O)c1cn(C2CC2)c2c(F)c(N3CCC(N)C3)c(F)cc2c1=O (stereo not drawn) [Example 21, 1-cyclopropyl-6,8-difluoro-7-(3-aminopyrrolidin-1-yl)-3-(2-ethoxycarbonylacetyl)-1,4-dihydro-4-oxoquinoline hydrochloride] | 0.195 | 0.781 | < 0.002 | 0.049 | 0.391 | 0.781 | 0.004 | 0.098 | 0.013 | 0.098 | 0.007 | 0.049 | 0.049 | 0.013 | 0.049 | 0.025 | 0.004 | 0.391 | 0.391 | 0.013 | 
CCOC(=O)C(C(=O)OCC)C(=O)c1cn(C2CC2)c2c(Cl)c(N3CCC(N)C3)c(F)cc2c1=O (stereo not drawn) [Example 22, 1-cyclopropyl-6-fluoro-8-chloro-7-(3-aminopyrrolidin-1-yl)-3-(2,2-diethoxycarbonylacetyl)-1,4-dihydro-4-oxoquinoline hydrochloride] | 0.781 | 0.391 | < 0.002 | 0.025 |  | 0.391 | 0.004 | 0.195 | 0.004 | 0.098 | 0.004 | 0.049 | 0.098 | < 0.002 | 0.049 | 0.025 | < 0.002 | 0.781 | 0.781 |  | MIC ([4]; Streptococcus pyogenes, 77A, 18 h): 0.781 µg/mL; MIC (Escherichia coli 1507E; 18 hours, read-out: MIC): < 0.002 µg/mL
